Assay results as given in patent US11622970B2, “BCL-2 inhibitors and their use as pharmaceuticals” (PRELUDE THERAPEUTICS INCORPORATED, priority 2020, dated 2023).

What follows are molecules tested against BCL-2 recombinant protein (Homo sapiens, UniProt P10415) (assay: Cell free Bcl-2:Bak affinity assay (Bcl-2 Bak), HTRF competition of FAM-Bak peptide). Settings: 1 μM compound, 4 nM BCL-2 recombinant protein, 100 nM FAM-Bak, read-out: potency (% inhibition at 1 μM).
Format: binding
Method: Biological Assays: Cell Free Bcl-2:Bak Affinity Assay (Bcl-2 Bak)
The assay is based on the competition of fluorescently labeled peptide binding to BCL-2 and the binding is monitored by HTRF signals between anti-GST-Tb and FAM-peptide using GST-Tag BCL proteins. Testing compounds were dissolved in DMSO at 10 mM and tested in 10-concentration IC50 mode. The compounds of interest in DMSO were added in 3-fold serial dilution to each well containing 4 nM of BCL-2 recombinant protein, 20 mM K Phosphate, pH 7.5, 50 mM NaCl, 1 mM EDTA, 0.005% Triton X-100, by using acoustic technology (Labcyte echo 550), After 10 minutes incubation at room temperature, 100 nM of FAM-Bak was added and incubated for another 10 minutes before addition of Anti-GST-Tb. The plate was then sealed and further incubated at room temperature for 60 minutes in the dark before reading. Percentage of inhibition was calculated by % inhibition=100×(FDMSO−F)/(FDMSO−FPC), in which FDMSO is DMSO control and FPC is a positive control. IC50 values were determined from dose-response curve by fitting the percent inhibition against compound concentration using GraphPad Prism software.

Sequence of BCL-2 recombinant protein (P10415 whole entry): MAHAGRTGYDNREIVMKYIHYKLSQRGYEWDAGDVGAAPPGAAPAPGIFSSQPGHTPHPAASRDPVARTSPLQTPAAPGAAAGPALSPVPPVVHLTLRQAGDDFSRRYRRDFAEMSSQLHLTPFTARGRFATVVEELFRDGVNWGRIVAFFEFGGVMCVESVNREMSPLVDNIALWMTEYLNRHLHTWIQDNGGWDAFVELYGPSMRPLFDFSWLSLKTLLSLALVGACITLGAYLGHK

| SMILES | inhibition at 1 µM |
| --- | --- |
| CC1(C)CCC(CN2CCN(c3ccc(S(=O)(=O)NC(=O)c4ccc(F)c(-c5ccc6[nH]ncc6c5)n4)cc3)CC2)=C(c2ccc(Cl)cc2)C1 [Example 48, N-[4-[4-[[2-(4-chlorophenyl)-4,4-dimethylcyclohexen-1-yl]methyl]piperazin-1-yl]phenyl]sulfonyl-5-fluoro-6-(1H-indazol-5-yl)pyridine-2-carboxamide] | 50 to 90% |
| Cn1cc(-c2nc(C(=O)NS(=O)(=O)c3ccc(N4CCN(CC5=C(c6ccc(Cl)cc6)CC(C)(C)CC5)CC4)cc3)ccc2F)cn1 [Example 45, N-[4-[4-[[2-(4-chlorophenyl)-4,4-dimethylcyclohexen-1-yl]methyl]piperazin-1-yl]phenyl]sulfonyl-5-fluoro-6-(1-methyl-1H-pyrazol-4-yl)pyridine-2-carboxamide] | 50 to 90% |
| Cn1ccc(-c2nc(C(=O)NS(=O)(=O)c3ccc(N4CCN(CC5=C(c6ccc(Cl)cc6)CC(C)(C)CC5)CC4)cc3)ccc2F)cc1=O [Example 56, N-[4-[4-[[2-(4-Chlorophenyl)-4,4-dimethylcyclohexen-1-yl]methyl]piperazin-1-yl]phenyl]sulfonyl-3-fluoro-1′-methyl-2′-oxo-1′,2′-dihydro-[2,4′-bipyridine]-6-carboxamide] | 50 to 90% |
| CC1(C)CCC(CN2CCN(c3ccc(S(=O)(=O)NC(=O)c4ccc5ncccc5c4)cc3)CC2)=C(c2ccc(Cl)cc2)C1 [Example 5, N-([4-[4-[[2-(4-chlorophenyl)-4,4-dimethylcyclohexen-1-yl]methyl]piperazin-1-yl]phenyl]sulfonyl)quinoline-6-carboxamide] | 50 to 90% |
| CC1(C)CCC(CN2CCN(c3ccc(S(=O)(=O)NC(=O)CCc4cccnc4)cc3)CC2)=C(c2ccc(Cl)cc2)C1 [Example 31, N-([4-[4-[[2-(4-chlorophenyl)-4,4-dimethylcyclohexen-1-yl]methyl]piperazin-1-yl]phenyl]sulfonyl)-3-(pyridin-3-yl)propanamide] | < 50% |
| CC1(C)CCC(CN2CCN(c3ccc(S(=O)(=O)NC(=O)c4ccc5sccc5c4)cc3)CC2)=C(c2ccc(Cl)cc2)C1 [Example 3, N-[4-[4-[[2-(4-chlorophenyl)-4,4-dimethylcyclohexen-1-yl]methyl]piperazin-1-yl]phenyl]sulfonylbenzo[b]thiophene-5-carboxamide] | 50 to 90% |
| CC1(C)CCC(CN2CCN(c3ccc(S(=O)(=O)NC(=O)C4(c5ccc([N+](=O)[O-])cc5)CC4)cc3)CC2)=C(c2ccc(Cl)cc2)C1 [Example 29, N-([4-[4-[[2-(4-chlorophenyl)-4,4-dimethylcyclohexen-1-yl]methyl]piperazin-1-yl]phenyl]sulfonyl)-1-(4-nitrophenyl)cyclopropane-1-carboxamide] | < 50% |
| Cc1ncc(C(=O)NS(=O)(=O)c2ccc(N3CCN(CC4=C(c5ccc(Cl)cc5)CC(C)(C)CC4)CC3)cc2)cn1 [Example 8, N-([4-[4-[[2-(4-chlorophenyl)-4,4-dimethylcyclohexen-1-yl]methyl]piperazin-1-yl]phenyl]sulfonyl)-2-methylpyrimidine-5-carboxamide] | 50 to 90% |
| COc1cc(-c2nc(C(=O)NS(=O)(=O)c3ccc(N4CCN(CC5=C(c6ccc(Cl)cc6)CC(C)(C)CC5)CC4)cc3)ccc2F)ccn1 [Example 55, N-[4-[4-[[2-(4-Chlorophenyl)-4,4-dimethylcyclohexen-1-yl]methyl]piperazin-1-yl]phenyl]sulfonyl-5-fluoro-6-(2-methoxypyridin-4-yl)pyridine-2-carboxamide] | 50 to 90% |
| CC1(C)CCC(CN2CCN(c3ccc(S(=O)(=O)NC(=O)c4cncc([N+](=O)[O-])c4)cc3)CC2)=C(c2ccc(Cl)cc2)C1 [Example 23, N-([4-[4-[[2-(4-chlorophenyl)-4,4-dimethylcyclohexen-1-yl]methyl]piperazin-1-yl]phenyl]sulfonyl)-5-nitropyridine-3-carboxamide] | 50 to 90% |
| Cc1nc(C(=O)NS(=O)(=O)c2ccc(N3CCN(CC4=C(c5ccc(Cl)cc5)CC(C)(C)CC4)CC3)cc2)ccc1F [Example 16, N-([4-[4-[[2-(4-chlorophenyl)-4,4-dimethylcyclohexen-1-yl]methyl]piperazin-1-yl]phenyl]sulfonyl)-5-fluoro-6-methyl pyridine-2-carboxamide] | 50 to 90% |
| Cn1ncc2ccc(-c3nc(C(=O)NS(=O)(=O)c4ccc(N5CCN(CC6=C(c7ccc(Cl)cc7)CC(C)(C)CC6)CC5)cc4)ccc3F)cc21 [Example 60, N-[4-[4-[[2-(4-Chlorophenyl)-4,4-dimethylcyclohexen-1-yl]methyl]piperazin-1-yl]phenyl]sulfonyl-5-fluoro-6-(1-methyl-1H-indazol-6-yl)pyridine-2-carboxamide] | 50 to 90% |
| COc1ccccc1C(=O)NS(=O)(=O)c1ccc(N2CCN(CC3=C(c4ccc(Cl)cc4)CC(C)(C)CC3)CC2)cc1 [Example 11, N-([4-[4-[[2-(4-chlorophenyl)-4,4-dimethylcyclohexen-1-yl]methyl]piperazin-yl]phenyl]sulfonyl)-2-methoxybenzamide] | 50 to 90% |
| CC1(C)CCC(CN2CCN(c3ccc(S(=O)(=O)NC(=O)c4ccncc4C(F)(F)F)cc3)CC2)=C(c2ccc(Cl)cc2)C1 [Example 22, N-([4-[4-[[2-(4-chlorophenyl)-4,4-dimethylcyclohexen-1-yl]methyl]piperazin-1-yl]phenyl]sulfonyl)-3-(trifluoromethyl)pyridine-4-carboxamide] | 50 to 90% |

Same assay, conditions: 10-concentration IC50 mode, 4 nM BCL-2 recombinant protein, 100 nM FAM-Bak, read-out: potency (IC50)

| SMILES | IC50 |
| --- | --- |
| CC1(C)CCC(CN2CCN(c3ccc(S(=O)(=O)NC(=O)c4cnc5sccc5c4)c(Oc4cnc5[nH]ccc5c4)c3)CC2)=C(c2ccc(Cl)cc2)C1 [Example 75, N-((2-((1H-pyrrolo[2,3-b]pyridin-5-yl)oxy)-4-(4-[[2-(4-Chlorophenyl)-4,4-dimethylcyclohexen-1-yl]methyl]piperazin-1-yl]phenyl)sulfonyl)thieno[2,3-b]pyridine-5-carboxamide] | 100 to 1000 nM |
| COc1cc(-c2nc(C(=O)NS(=O)(=O)c3ccc(N4CCN(CC5=C(c6ccc(Cl)cc6)CC(C)(C)CC5)CC4)cc3Oc3cnc4[nH]ccc4c3)ccc2F)ccn1 [Example 62, N-[4-[4-[[2-(4-Chlorophenyl)-4,4-dimethylcyclohexen-1-yl]methyl]piperazin-1-yl]-2-(1H-pyrrolo[2,3-b]pyridin-5-yloxy)phenyl]sulfonyl-5-fluoro-6-(2-methoxypyridin-4-yl)pyridine-2-carboxamide] | 100 to 1000 nM |
| Cc1nc(C(=O)NS(=O)(=O)c2ccc(N3CCN(CC4=C(c5ccc(Cl)cc5)CC(C)(C)CC4)CC3)cc2Oc2cnc3[nH]ccc3c2)ccc1[N+](=O)[O-] [Example 70, N-[4-[4-[[2-(4-chlorophenyl)-4,4-dimethylcyclohexen-1-yl]methyl]piperazin-1-yl]-2-(1H-pyrrolo[2,3-b]pyridin-5-yloxy)phenyl]sulfonyl-6-methyl-5-nitropyridine-2-carboxamide] | 10 to 100 nM |
| Cc1c(Cl)c(C(=O)NS(=O)(=O)c2ccc(N3CCN(CC4=C(c5ccc(Cl)cc5)CC(C)(C)CC4)CC3)cc2Oc2cnc3[nH]ccc3c2)cc([N+](=O)[O-])c1OCC1CCOC1 (stereo not shown) [Example 106, 2-chloro-N-[4-[4-[[2-(4-chlorophenyl)-4,4-dimethylcyclohexen-1-yl]methyl]piperazin-1-yl]-2-(1H-pyrrolo[2,3-b]pyridin-5-yloxy)phenyl]sulfonyl-3-methyl-5-nitro-4-(oxolan-3-ylmethoxy)benzamide] | < 10 nM |
| Cc1cc(S(C)(=O)=O)cc(C(=O)NS(=O)(=O)c2ccc(N3CCN(CC4=C(c5ccc(Cl)cc5)CC(C)(C)CC4)CC3)cc2Oc2cnc3[nH]ccc3c2)n1 [Example 97, N-[4-[4-[[2-(4-Chlorophenyl)-4,4-dimethylcyclohexen-1-yl]methyl]piperazin-1-yl]-2-(1H-pyrrolo[2,3-b]pyridin-5-yloxy)phenyl]sulfonyl-6-methyl-4-methylsulfonylpyridine-2-carboxamide] | > 1000 nM |
| CC1(C)CCC(CN2CCN(c3ccc(S(=O)(=O)NC(=O)c4ccc(CN5CCOCC5)c([N+](=O)[O-])c4)c(Oc4cnc5[nH]ccc5c4)c3)CC2)=C(c2ccc(Cl)cc2)C1 [Example 90, N-[4-[4-[[2-(4-chlorophenyl)-4,4-dimethylcyclohexen-1-yl]methyl]piperazin-1-yl]-2-(1H-pyrrolo[2,3-b]pyridin-5-yloxy)phenyl]sulfonyl-4-(morpholin-4-ylmethyl)-3-nitrobenzamide] | 100 to 1000 nM |
| CC1(C)CCC(CN2CCN(c3ccc(S(=O)(=O)NC(=O)c4ccc(COc5ccc(Cl)cc5)c(F)c4)c(Oc4cnc5[nH]ccc5c4)c3)CC2)=C(c2ccc(Cl)cc2)C1 [Example 83, 4-[(4-Chlorophenoxy)methyl]-N-[4-[4-[[2-(4-chlorophenyl)-4,4-dimethylcyclohexen-1-yl]methyl]piperazin-1-yl]-2-(1H-pyrrolo[2,3-b]pyridin-5-yloxy)phenyl]sulfonyl-3-fluorobenzamide] | 10 to 100 nM |
| CCNc1c([N+](=O)[O-])cc(C(=O)NS(=O)(=O)c2ccc(N3CCN(CC4=C(c5ccc(Cl)cc5)CC(C)(C)CC4)CC3)cc2)c(Cl)c1C [Example 43, 2-chloro-N-[4-[4-[[2-(4-chlorophenyl)-4,4-dimethylcyclohexen-1-yl]methyl]piperazin-1-yl]phenyl]sulfonyl-4-(ethylamino)-3-methyl-5-nitrobenzamide] | 100 to 1000 nM |
